In paper PMC5986738, “Thiazole Amides, A Novel Class of Algaecides against Freshwater Harmful Algae” (Scientific Reports, 2018):
≈ marks a conversion by molar mass, not a printed value. Blank lines part the entries; values can stand above or below the compound they belong to.

How the values were obtained:
[1] = system: dinoflagellates and raphidophytes; parameters: method as in doi:10.1016/j.tetlet.2003.08.115, PMID 17988095; settings: cited from earlier work
C. pyrenoidosa = assay: Algicidal activity (growth inhibition, microplate, absorbance 650 nm) against C. pyrenoidosa; type: cell-based, Chlorella pyrenoidosa; settings: Auxenochlorella pyrenoidosa; 96-hour IC50, mean ± SD; read-out: IC50 value C. pyrenoidosa
Experimental: (§1) According to the method established by Schrader et al.[42], algicidal activity of alkaloid (1) and its amide analogues (7–32), as well as their hydrochloric salts (7S–27S), was evaluated against three typical […] algae, S. obliqnus, M. aeruginosa, and C. Pyrenoidosa at different concentrations. After three algae species were inoculated, the variation of algae density over 7 days were recorded continuously. […] The wavelength at 650 nm was determined as ideal incident wavelength for the measurement of algae density. Three […] algae S. obliqnus, M. aeruginosa, and C. pyrenoidosa were offered by Freshwater algae culture collection of the institute of Hydrobiology (FACHB-collection). Each culture for three species was maintained separately in continuous, steady-state growth microplates, which were placed in a growth chamber held at 28 ± 1 °C and illuminated continuously under fluorescent lights at a photon flux density of […]. Absorbance values of each wells were measured by a Packard model Spectra Count microplate photometer.
(§2) Alkaloid (1) and its analogues (7–32), as well as their hydrochloric salts (7S–27S), were dissolved separately in DMSO to provide stock solution concentrations. Initially, each stock solution was aseptically pipetted into the bottom of separate wells (20 μL per well) in a 96-well microplate and the final test concentrations for each sample were 0, 0.78, 1.56, 3.12, 6.25, 12.5, and 25 μg/mL. Wells of control samples contained only unialgal culture. The solution of CuSO4 and Diuron at the same concentration were chose as the reference sample. Each experiment was performed at least three times. Through measuring the area values under the individual growth curves, the inhibitory rate (%) for the individual tested concentration was calculated according to the following equation (1):1 Ii=(Ac−Ai)/[…]×100% • Ii: inhibitory rate of biomass growth by toxicant concentration i (%) • Ac: average area under the growth curve by control sample • Ai: average area under the growth curve by test concentration i
(§3) Mean values of 96-hour IC50 were determined for each group of plates, and standard deviation were calculated and reported as the mean ± SD.
(§4) The IC50 values of all compounds against three freshwater algae species were calculated using SPSS v19.0, and the algicidal activities of alkaloid (1) and its amide analogues (7–32), as well as the corresponding hydrochloric salts (7S–27S) are listed in Table 1 and 2, respectively.

Barchydanio rerio var = assay: Toxicity toward fish; type: in vivo; settings: for Survival ratio in 7 days: fish
Experimental: (§5) Toxicity of this class of thiazole amides towards non-target organisms, such as higher plants and fishes, was evaluated preliminarily using compound (10) as a representative sample. Herbicidal activity of compound (10) against two terrestrial plants, Brassica campestris and Echinochloa crusgalli, and two aquatic plants, Ceratophyllum demersum L and Hydrilla verticillata, was evaluated at a concentration of 500 mg/L using a previously reported method. In addition, toxicity of compound (10) toward fish Barchydanio rerio var was also tested at the concentrations of 200 mg/L and 100 mg/L, respectively.

Ceratophyllum demersum L = assay: Herbicidal activity against aquatic plant C. demersum L; type: in vivo; settings: n.a.: no activity
Experimental: as §5

S. obliqnus = assay: Algicidal activity (growth inhibition, microplate, absorbance 650 nm) against S. obliqnus; type: cell-based; settings: for IC50: 96 h, 96-hour IC50, mean ± SD, read-out: IC50 value S. obliqnus
Experimental: as §1, §2, §3, §4

M. aeruginosa = assay: Algicidal activity (growth inhibition, microplate, absorbance 650 nm) against M. aeruginosa; type: cell-based; settings: for growth inhibitory ratio: 3.13 μg/mL; for IC50: Microcystis aeruginosa, 96-hour IC50, mean ± SD, read-out: IC50 value M. aeruginosa
Experimental: as §1, §2, §3, §4
Currently, M. aeruginosa appears to be the most harmful algae existing in the freshwater bodies in the developing countries. To investigate growth inhibitory potential of this class of thiazole amides on M. aeruginosa, thiazole amide (10) and its hydrochloric acid salt (10S) were subject to further survey for the optimal inhibition time and concentration (Figs 3 and 4). […] The variation of growth inhibitory ratios of compounds (10) and (10S) against M. aeruginosa at the lowest complete inhibition concentration is illustrated in Fig. 4. As observed, for administration of thiazole amide (10), the growth inhibitory ratios after 96 and 120 hours increase gradually to 79% and 92%, respectively. Under the same experimental conditions, growth inhibitory ratios for the salt (10S) are 82% and 88%, respectively.

Echinochloa crusgalli = assay: Herbicidal activity against terrestrial plant E. crusgalli; type: in vivo; settings: n.a.: no activity
Experimental: as §5

Hydrilla verticillata = assay: Herbicidal activity against aquatic plant H. verticillata; type: in vivo; settings: n.a.: no activity
Experimental: as §5

Brassica campestris = assay: Herbicidal activity against terrestrial plant B. campestris; type: in vivo; settings: n.a.: no activity
Experimental: as §5

Microcystis aeruginosa = system: Microcystis aeruginosa; parameters: method as in PMID 16468755, PMID 16378379; settings: cited from earlier work
[2] = parameters: method as in PMID 16468755, PMID 16378379; settings: Synechococcus obliqnus; cited from earlier work
Kirchneriella contorta = system: Kirchneriella contorta; parameters: method as in PMID 16468755, PMID 16378379; settings: cited from earlier work

Compound: CC(=O)c1nc(C(=O)NCCc2c[nH]c3ccccc23)cs1 [bacillamide A]
antibiotic activity (in words) [1]: potent antibiotic activity

Compound: C[C@H](N)c1nc(C(=O)Nc2ccc(Br)cc2)cs1 [compound 10]
IC50 (C. pyrenoidosa): 1.52 ± 0.05 µg/mL (≈ 4.66 µM)
toxicity toward fish (in words) (Barchydanio rerio var; 100 and 200 mg/L): safe
Survival ratio in 7 days (Barchydanio rerio var; dosage 100 mg/L): 100%
Survival ratio in 7 days (Barchydanio rerio var; dosage 200 mg/L): 100%
Herbicidal activity (500 mg/L) C. demersum L. (Ceratophyllum demersum L): none-toxic
algicidal activity, times higher than CuSO4 and Diuron (S. obliqnus; S. obliqnus, from IC50 values): more than 10 times
growth inhibitory ratio (M. aeruginosa; after 96 hours): 79%
growth inhibitory ratio (M. aeruginosa; after 120 hours): 92%
IC50 (M. aeruginosa): 1.51 ± 0.11 µg/mL (≈ 4.63 µM)
Herbicidal activity (500 mg/L) E. crusalli (Echinochloa crusgalli): none-toxic
Herbicidal activity (500 mg/L) H. verticillata (Hydrilla verticillata): none-toxic
Herbicidal activity (500 mg/L) B. campestris (Brassica campestris): none-toxic

Compound: CCCCNC(=O)c1csc([C@H](C)N)n1 [compound 30]
IC50 (C. pyrenoidosa): 4.65 ± 0.25 µg/mL (≈ 20.5 µM)
IC50 (S. obliqnus): 5.23 ± 0.36 µg/mL (≈ 23 µM)
IC50 (M. aeruginosa): 5.47 ± 0.41 µg/mL (≈ 24.1 µM)
melting point: 109 to 111 °C

Compound: C[C@H](N)c1nc(C(=O)NCc2ccccc2)cs1 [compound 32]
IC50 (C. pyrenoidosa): 4.16 ± 0.88 µg/mL (≈ 15.9 µM)
IC50 (S. obliqnus): 100.2 ± 0.34 µg/mL (≈ 383 µM)
IC50 (M. aeruginosa): 9.48 ± 1.08 µg/mL (≈ 36.3 µM)
melting point: 64 to 67 °C

Compound: C[n+]1ccc2c(c1)[nH]c1ccc(Cl)cc12 [nostocarboline]
IC50 (Microcystis aeruginosa): 2.1 µM
IC50 [2]: 5.8 µM
IC50 (Kirchneriella contorta): 29.1 µM

The next lines start with results.

melting point: 135 to 137 °C
Compound: Cc1cccc(NC(=O)c2csc([C@H](C)N)n2)c1 [compound 16]
IC50 (C. pyrenoidosa): 7.18 ± 0.05 µg/mL (≈ 27.5 µM)
IC50 (S. obliqnus): 2.86 ± 0.14 µg/mL (≈ 10.9 µM)
IC50 (M. aeruginosa): 24.2 ± 3.12 µg/mL (≈ 92.4 µM)

melting point: 82 to 84 °C
Compound: COc1ccccc1NC(=O)c1csc([C@H](C)N)n1 [compound 22]
IC50 (C. pyrenoidosa): 2.19 ± 0.71 µg/mL (≈ 7.9 µM)
IC50 (S. obliqnus): < 1 µg/mL
IC50 (M. aeruginosa): 3.12 ± 0.56 µg/mL (≈ 11.2 µM)

melting point: 139 to 141 °C
Compound: CC(=O)c1ccc(NC(=O)c2csc([C@H](C)N)n2)cc1 [compound 27]
IC50 (C. pyrenoidosa): 2.84 ± 0.23 µg/mL (≈ 9.81 µM)
IC50 (S. obliqnus): 4.73 ± 0.54 µg/mL (≈ 16.3 µM)
IC50 (M. aeruginosa): 2.33 ± 0.32 µg/mL (≈ 8.05 µM)
